Laboratory results from the supplement of paper PMC11208160.

Assay: recombinant barcode read abundance after kanamycin selection (control-corrected) (log10(CPM+1)); higher = more efficient recombination; sequences stand for … in AGTGCAGAGAAAATCGGCCAGTTTTCTCTGCCTGCAGTCCGCATGCCGT…AGATTTATGCAGCGGACTGCCTTTCTCCCAAAGTGATAAACCGGACAGTATCATGGACCGGTTTTCCCGGTAATCCGTATTTGCAAGGTTGGTTTCACT; site = the 11-nt target
Description: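 Pooled E. coli target-specificity screen for the IS621 bridge recombinase. Each library plasmid pairs an 11-nt target (CT core) with a bridge RNA whose target-binding loop (9-nt LTG + 4-nt RTG) is reprogrammed; the rest of the 177-nt WT IS621 bridge RNA scaffold is fixed. The plasmid is co-electroporated with a WT donor plasmid; recombinase is induced with 0.1 mM IPTG and recombinants are selected on kanamycin. Recombinant barcodes are sequenced, converted to CPM, averaged over two biological replicates and corrected by the unselected control CPM. Molecule = full bridge RNA written as DNA: LTG = specificity nt 1-9, RTG = reverse complement of specificity nt 8-11, in the WT scaffold.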
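Also: IS621 recombinase and bridge RNA in Escherichia coli cells.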

| Sequence | recombinant barcode read abundance (log10) |
| --- | --- |
| AAGAGAGCTTGGGTTCTAACCTGTTGCCT (site AAGAAAGCTAG) | 0.0985 |
| AAGAGAGCTTGGGTTCTAACCTGTTGCCT (site AAGACAGCTAG) | 0.154 |
| AAGAGAGCTTGGGTTCTAACCTGTTGCCT (site AAGAGAGCTAG) | 1.91 |
| AAGAGAGCTTGGGTTCTAACCTGTTGCCT (site AAGATAGCTAG) | 0.0307 |
| AAGATCACTTGGGTTCTAACCTGTTGCGG (site AAGATCACTCC) | 2.36 |
| AAGATCACTTGGGTTCTAACCTGTTGCGG (site TTACATGCTAG) | 0.026 |
| AAGCAAACTTGGGTTCTAACCTGTTGCCT (site AAGCAAACTAG) | 0.66 |
| AAGCAAACTTGGGTTCTAACCTGTTGCCT (site AAGCCAACTAG) | 0.0799 |
| AAGCAAACTTGGGTTCTAACCTGTTGCCT (site AAGCGAACTAG) | 0.22 |
| AAGCAAACTTGGGTTCTAACCTGTTGCCT (site AAGCTAACTAG) | 0.218 |
| AAGCAATCTTGGGTTCTAACCTGTTGCCT (site AAGCAATCTAG) | 0.927 |
| AAGCAATCTTGGGTTCTAACCTGTTGCCT (site AAGCACTCTAG) | 0.159 |
| AAGCAATCTTGGGTTCTAACCTGTTGCCT (site AAGCAGTCTAG) | 0.0406 |
| AAGCAATCTTGGGTTCTAACCTGTTGCCT (site AAGCATTCTAG) | 0.126 |
| AAGCCACCTTGGGTTCTAACCTGTTGCCT (site AAGCCACCTAG) | 2.3 |
| AAGCCACCTTGGGTTCTAACCTGTTGCCT (site CAGCCACCTAG) | 0.126 |
| AAGCCACCTTGGGTTCTAACCTGTTGCCT (site GAGCCACCTAG) | 0.392 |
| AAGCCACCTTGGGTTCTAACCTGTTGCCT (site TAGCCACCTAG) | 1.31 |
| AAGCGTCCTTGGGTTCTAACCTGTTGCCT (site AAGCGTACTAG) | 0.384 |
| AAGCGTCCTTGGGTTCTAACCTGTTGCCT (site AAGCGTCCTAG) | 1.24 |
| AAGCGTCCTTGGGTTCTAACCTGTTGCCT (site AAGCGTGCTAG) | 0.583 |

| Sequence | recombinant barcode read abundance (log10) |
| --- | --- |
| AAGCGTCCTTGGGTTCTAACCTGTTGCCT (site AAGCGTTCTAG) | 0.06 |
| AAGCTTGCTTGGGTTCTAACCTGTTGCCT (site AAGCTTGCTAG) | 1.1 |
| AAGCTTGCTTGGGTTCTAACCTGTTGCCT (site CGATGGACTCA) | 0.315 |
| AAGGACGCTTGGGTTCTAACCTGTTGCCT (site AAGGACGCTAG) | 2.72 |
| AAGGACGCTTGGGTTCTAACCTGTTGCCT (site AAGGCCGCTAG) | 0.241 |
| AAGGACGCTTGGGTTCTAACCTGTTGCCT (site AAGGGCGCTAG) | 0.309 |
| AAGGACGCTTGGGTTCTAACCTGTTGCCT (site AAGGTCGCTAG) | 0.0217 |
| AAGGGTTCTTGGGTTCTAACCTGTTGCCA (site AAGGGTTCTTG) | 1.78 |
| AAGGGTTCTTGGGTTCTAACCTGTTGCCA (site ACGGGTACTTG) | 0.0285 |
| AAGGTTCCTTGGGTTCTAACCTGTTGCTA (site AAGGTCCCTTG) | 0.0242 |
| AAGGTTCCTTGGGTTCTAACCTGTTGCTA (site AAGGTTCCTTA) | 1.73 |
| AAGTACACTTGGGTTCTAACCTGTTGCTG (site AAGTACACTCA) | 2.75 |
| AAGTACACTTGGGTTCTAACCTGTTGCTG (site CGACTGTCTAG) | 0.0537 |
| AAGTGCTCTTGGGTTCTAACCTGTTGCCT (site AAGTGCTCTAG) | 2.34 |
| AAGTGCTCTTGGGTTCTAACCTGTTGCCT (site ACGTGCTCTAG) | 0.129 |
| AAGTGCTCTTGGGTTCTAACCTGTTGCCT (site AGGTGCTCTAG) | 0.124 |
| AAGTGCTCTTGGGTTCTAACCTGTTGCCT (site ATGTGCTCTAG) | 0.127 |
| AAGTGTCCTTGGGTTCTAACCTGTTGCAT (site AAGTGTCCTAT) | 1.73 |
| AAGTGTCCTTGGGTTCTAACCTGTTGCAT (site AAGTTTCCTAT) | 0.0208 |
| AAGTTTACTTGGGTTCTAACCTGTTGCTT (site AAGTTTACTAA) | 0.177 |
| AAGTTTACTTGGGTTCTAACCTGTTGCTT (site AAGTTTACTAG) | 0.0137 |

| Sequence | recombinant barcode read abundance (log10) |
| --- | --- |
| AAGTTTCCTTGGGTTCTAACCTGTTGCGT (site AAGTTTCCTAC) | 0.923 |
| AAGTTTCCTTGGGTTCTAACCTGTTGCGT (site ACGTTTCCTAT) | 0.102 |
| AATACCTCTTGGGTTCTAACCTGTTGCCT (site AATACCTCTAG) | 1.03 |
| AATACCTCTTGGGTTCTAACCTGTTGCCT (site ACTACCTCTAG) | 0.0183 |
| AATACCTCTTGGGTTCTAACCTGTTGCCT (site AGTACCTCTAG) | 0.0751 |
| AATACCTCTTGGGTTCTAACCTGTTGCCT (site ATTACCTCTAG) | 0.0243 |
| AATACTACTTGGGTTCTAACCTGTTGCCT (site AATACTACTAG) | 1.04 |
| AATACTACTTGGGTTCTAACCTGTTGCCT (site ACTACTACTAG) | 0.0229 |
| AATACTACTTGGGTTCTAACCTGTTGCCT (site AGTACTACTAG) | 0.0104 |
| AATACTACTTGGGTTCTAACCTGTTGCCT (site ATTACTACTAG) | 0 |
| AATACTACTTGGGTTCTAACCTGTTGCTG (site AATACTACTCA) | 0.256 |
| AATACTACTTGGGTTCTAACCTGTTGCTG (site AGTACTCCTCA) | 0.196 |
| AATAGTGCTTGGGTTCTAACCTGTTGCCT (site AATAGTGCTAG) | 0.203 |
| AATAGTGCTTGGGTTCTAACCTGTTGCCT (site ACTAGTGCTAG) | 0.101 |
| AATAGTGCTTGGGTTCTAACCTGTTGCCT (site AGTAGTGCTAG) | 0.176 |
| AATAGTGCTTGGGTTCTAACCTGTTGCCT (site ATTAGTGCTAG) | 0.045 |
| AATCGAACTTGGGTTCTAACCTGTTGCCT (site AATCGAACTAG) | 0.297 |
| AATCGAACTTGGGTTCTAACCTGTTGCCT (site GATCGAACTAG) | 0.15 |
| AATCTAACTTGGGTTCTAACCTGTTGCCT (site AATCTAACTAG) | 0.527 |
| AATCTAACTTGGGTTCTAACCTGTTGCCT (site GGCGCCTCTGC) | 0.538 |
| AATCTGTCTTGGGTTCTAACCTGTTGCGT (site AATCTGTCTAC) | 1.8 |

| Sequence | recombinant barcode read abundance (log10) |
| --- | --- |
| AATCTGTCTTGGGTTCTAACCTGTTGCGT (site TAGCTGTCTAC) | 0.149 |
| AATGATTCTTGGGTTCTAACCTGTTGCGT (site AATGATTCTAC) | 2.27 |
| AATGATTCTTGGGTTCTAACCTGTTGCGT (site GGGCCGGCTCG) | 0.433 |
| AATGCATCTTGGGTTCTAACCTGTTGCCT (site AATGAATCTAG) | 0.0891 |
| AATGCATCTTGGGTTCTAACCTGTTGCCT (site AATGCATCTAG) | 0.285 |
| AATGCATCTTGGGTTCTAACCTGTTGCCT (site AATGGATCTAG) | 0.054 |
| AATGCATCTTGGGTTCTAACCTGTTGCCT (site AATGTATCTAG) | 0.0299 |
| AATGCTACTTGGGTTCTAACCTGTTGCCA (site AAAACTACTTG) | 0.127 |
| AATGCTACTTGGGTTCTAACCTGTTGCCA (site AATGCTACTTG) | 0.266 |
| AATGGATCTTGGGTTCTAACCTGTTGCCT (site AATGAATCTAG) | 0.0825 |
| AATGGATCTTGGGTTCTAACCTGTTGCCT (site AATGCATCTAG) | 0.0416 |
| AATGGATCTTGGGTTCTAACCTGTTGCCT (site AATGGATCTAG) | 1.01 |
| AATGGATCTTGGGTTCTAACCTGTTGCCT (site AATGTATCTAG) | 0.0683 |
| AATGGGTCTTGGGTTCTAACCTGTTGCCT (site AATGGGACTAG) | 0.0612 |
| AATGGGTCTTGGGTTCTAACCTGTTGCCT (site AATGGGCCTAG) | 0.132 |
| AATGGGTCTTGGGTTCTAACCTGTTGCCT (site AATGGGGCTAG) | 0.04 |
| AATGGGTCTTGGGTTCTAACCTGTTGCCT (site AATGGGTCTAG) | 1.3 |
| AATTAAGCTTGGGTTCTAACCTGTTGCCT (site AATTAAGCTAG) | 1.28 |
| AATTAAGCTTGGGTTCTAACCTGTTGCCT (site AATTCAGCTAG) | 0.159 |
